The text below walks through data of US7109193B2, “Tricyclic diazepines tocolytic oxytocin receptor antagonists” (Wyeth, priority 2001, dated 2006).

One may read the inhibition as the change of the read-out against control, counted positive when it falls.

For the experiment, the target named is T1, human vasopressin V1a receptor subtype (Homo sapiens, UniProt P37288).
T1 construct: host or cells: CHO cells (pZeoSV vector for the Thibonnier line)
Briefly: Vasopressin binding in Chinese Hamster Ovary cell membranes expressing human vasopressin V1a subtype receptors. The note with it: 100 nM, CHO cell membranes, [3H]Manning ligand, values without parentheses. A digest of the protocol: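 Displacement of [3H]Manning ligand (8 nM working solution) from human V1a receptors in CHO cell membranes, 25–50 μg protein per well. Incubation ran 60 min at room temperature in 50 mM Tris-HCl pH 7.4 with protease inhibitors, followed by filtration and scintillation counting. Results are given as IC50 or percent inhibition.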

T1 sequence (P37288 whole entry): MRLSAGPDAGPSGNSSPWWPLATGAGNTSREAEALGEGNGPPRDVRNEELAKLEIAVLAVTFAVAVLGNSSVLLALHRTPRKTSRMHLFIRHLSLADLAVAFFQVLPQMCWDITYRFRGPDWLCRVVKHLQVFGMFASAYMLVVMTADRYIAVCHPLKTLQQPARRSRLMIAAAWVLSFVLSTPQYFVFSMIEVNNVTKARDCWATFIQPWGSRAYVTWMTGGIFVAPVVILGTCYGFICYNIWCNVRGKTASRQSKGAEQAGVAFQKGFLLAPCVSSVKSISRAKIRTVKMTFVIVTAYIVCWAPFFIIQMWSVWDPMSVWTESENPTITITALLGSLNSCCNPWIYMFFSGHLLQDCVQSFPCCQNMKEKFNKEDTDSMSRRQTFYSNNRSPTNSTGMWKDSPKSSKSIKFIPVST

In the case of `COc1ccccc1-c1ccc(C(=O)N2Cc3ccc(C(=O)N[C@@H](Cc4c[nH]cn4)C(N)=O)n3Cc3ccccc32)cc1` [Example 285, N-[(1S)-2-Amino-1-(1H-imidazol-4-ylmethyl)-2-oxoethyl]-10-[(2′-methoxy[1,1′-biphenyl]-4-yl)carbonyl]-10,11-dihydro-5H-pyrrolo[2,1-c][1,4]benzodiazepine-3-carboxamide], the inhibition at 0.1 µM came to 38%.
Under `COc1ccccc1-c1ccc(C(=O)N2Cc3ccc(C(=O)N[C@@H](Cc4c[nH]cn4)C(N)=O)n3Cc3ccccc32)cc1OC` [Example 286, N-[(1S)-2-Amino-1-(1H-imidazol-4-ylmethyl)-2-oxoethyl]-10-[(2,2′-dimethoxy[1,1′-biphenyl]-4-yl)carbonyl]-10,11-dihydro-5H-pyrrolo[2,1-c][1,4]benzodiazepine-3-carboxamide] stands 8%; under `COc1cccc(-c2cc(OC)c(C(=O)N3Cc4ccc(C(=O)N[C@@H](Cc5c[nH]cn5)C(N)=O)n4Cc4ccccc43)cc2Cl)c1` [Example 287, N-[(1S)-2-Amino-1-(1H-imidazol-4-ylmethyl)-2-oxoethyl]-10-[(6-chloro-3,3′-dimethoxy[1,1′-biphenyl]-4-yl)carbonyl]-10,11-dihydro-5H-pyrrolo[2,1-c][1,4]benzodiazepine-3-carboxamide], 0%; under `COc1ccccc1-c1ccc(C(=O)N2Cc3ccc(C(=O)N[C@@H](Cc4c[nH]cn4)C(N)=O)n3Cc3ccccc32)cc1C` [Example 288, N-[(1S)-2-Amino-1-(1H-imidazol-4-ylmethyl)-2-oxoethyl]-10-[(2′-methoxy-2-methyl[1,1′-biphenyl]4-yl)carbonyl]-10,11-dihydro-5H-pyrrolo[2,1-c][1,4]benzodiazepine-3-carboxamide], 24%.
On to `COc1cccc(-c2ccc(C(=O)N3Cc4ccc(C(=O)n5ccnc5)n4Cc4ccccc43)cc2C)c1` [Example 289, 1H-Imidazol-1-yl-{10-[(3′-methoxy-2-methyl[1,1′-biphenyl]-4-yl)carbonyl]-10,11-dihydro-5H-pyrrolo[2,1-c][1,4]benzodiazepin-3-yl}methanone], for which the inhibition at 0.1 µM came out at 6%.
As for `COc1cc(C(=O)N2Cc3ccc(C(=O)n4ccnc4)n3Cc3ccccc32)ccc1-c1ccccc1C` [Example 290, 1H-Imidazol-1-yl-{10-[(2-methoxy-2′-methyl[1,1′-biphenyl]-4-yl)carbonyl]-10,11-dihydro-5H-pyrrolo[2,1-c][1,4]benzodiazepin-3-yl}methanone], the inhibition at 0.1 µM came to 47%.
`COc1cc(C(=O)N2Cc3ccc(C(=O)n4ccnc4)n3Cc3ccccc32)ccc1-c1cccc2ccccc12` [Example 291, 1H-Imidazol-1-yl-{10-[3-methoxy-4-(1-naphthyl)benzoyl]-10,11-dihydro-5H-pyrrolo[2,1-c][1,4]benzodiazepin-3-yl}methanone]: the inhibition at 0.1 µM was 2%.
As for `COc1ccccc1-c1ccc(C(=O)N2Cc3ccc(C(=O)n4ccnc4)n3Cc3ccccc32)cc1C` [Example 292, 1H-Imidazol-1-yl-{10-[(2′-methoxy-2-methyl[1,1′-biphenyl]-4-yl)carbonyl]-10,11-dihydro-5H-pyrrolo[2,1-c][1,4]benzodiazepin-3-yl}methanone], the inhibition at 0.1 µM turned out to be 6%.
Regarding `COc1ccccc1-c1ccc(C(=O)N2Cc3ccc(C(=O)n4ccnc4)n3Cc3ccccc32)cc1OC` [Example 293, {10-[(2,2′-Dimethoxy[1,1′-biphenyl]-4-yl)carbonyl]-10,11-dihydro-5H-pyrrolo[2,1-c][1,4]benzodiazepin-3-yl}(1H-imidazol-1-yl)methanone], the inhibition at 0.1 µM is 2%.
Consider `Cc1cc(C(=O)N2Cc3ccc(C(=O)n4ccnc4)n3Cc3ccccc32)ccc1-c1ccccc1C(F)(F)F` [Example 294, 1H-Imidazol-1-yl(10-{[2-methyl-2′-(trifluoromethyl)[1,1′-biphenyl]-4-yl]carbonyl}-10,11-dihydro-5H-pyrrolo[2,1-c][1,4]benzodiazepin-3-yl)methanone], for which the inhibition at 0.1 µM is -3%.
In the case of `COc1ccccc1-c1ccc(C(=O)N2Cc3ccc(C(=O)N[C@@H]4CN5CCC4CC5)n3Cc3ccccc32)cc1C` [Example 295, N-[(3S)-1-Azabicyclo[2.2.2]oct-3-yl]-10-[(2′-methoxy-2-methyl[1,1′-biphenyl]-4-yl)carbonyl]-10,11-dihydro-5H-pyrrolo[2,1-c][1,4]benzodiazepine-3-carboxamide], the inhibition at 0.1 µM stood at 6%.
Turning to `COc1ccccc1-c1ccc(C(=O)N2Cc3ccc(C(=O)N[C@H]4CN5CCC4CC5)n3Cc3ccccc32)cc1` [Example 296, N-[(3R)-1-Azabicyclo[2.2.2]oct-3-yl]-10-[(2′-methoxy[1,1′-biphenyl]-4-yl)carbonyl]-10,11-dihydro-5H-pyrrolo[2,1-c][1,4]benzodiazepine-3-carboxamide], the inhibition at 0.1 µM stood at 31%.
The result for `COc1cc(-c2ccccc2C)c(Cl)cc1C(=O)N1Cc2ccc(C(=O)N[C@@H]3CN4CCC3CC4)n2Cc2ccccc21` [Example 297, N-[(3S)-1-Azabicyclo[2.2.2]oct-3-yl]-10-[(6-chloro-3-methoxy-2′-methyl-[1,1′-biphenyl]-4-yl)carbonyl]-10,11-dihydro-5H-pyrrolo[2,1-c][1,4]benzodiazepine-3-carboxamide] reads -2%.
Under `COc1ccccc1-c1ccc(C(=O)N2Cc3ccc(C(=O)N[C@H]4CN5CCC4CC5)n3Cc3ccccc32)cc1C` [Example 298, N-[(3R)-1-Azabicyclo[2.2.2]oct-3-yl]-10-[(2′-methoxy-2-methyl[1,1′-biphenyl]-4-yl)carbonyl]-10,11-dihydro-5H-pyrrolo[2,1-c][1,4]benzodiazepine-3-carboxamide] stands 20%.
Take `COc1ccccc1-c1ccc(C(=O)N2Cc3ccc(C(=O)N[C@H]4CN5CCC4CC5)n3Cc3ccccc32)cc1OC` [Example 299, N-[(3R)-1-Azabicyclo[2.2.2]oct-3-yl]-10-[(2,2′-dimethoxy[1,1′-biphenyl]-4-yl)carbonyl]-10,11-dihydro-5H-pyrrolo[2,1-c][1,4]benzodiazepine-3-carboxamide]: the inhibition at 0.1 µM came to 14%.
For `COc1ccccc1-c1ccc(C(=O)N2Cc3ccc(C(=O)N[C@@H]4CN5CCC4CC5)n3Cc3ccccc32)cc1OC` [Example 300, N-[(3S)-1-Azabicyclo[2.2.2]oct-3-yl]-10-[(2,2′-dimethoxy[1,1′-biphenyl]-4-yl)carbonyl]-10,11-dihydro-5H-pyrrolo[2,1-c][1,4]benzodiazepine-3-carboxamide], the inhibition at 0.1 µM was -2%.
In the case of `Cc1cc(C(=O)N2Cc3ccc(C(=O)N[C@H]4CN5CCC4CC5)n3Cc3ccccc32)ccc1-c1ccccc1C(F)(F)F` [Example 301, N-[(3R)-1-Azabicyclo[2.2.2]oct-3-yl]-10-{[2-methyl-2′-(trifluoromethyl)[1,1′-biphenyl]-4-yl]carbonyl}-10,11-dihydro-5H-pyrrolo[2,1-c][1,4]benzodiazepine-3-carboxamide], the inhibition at 0.1 µM is 1%.
In the case of `COc1cccc(-c2cc(OC)c(C(=O)N3Cc4ccc(C(=O)N[C@@H](CCCCNC(=O)OC(C)(C)C)C(N)=O)n4Cc4ccccc43)cc2Cl)c1` [Example 302, tert-Butyl (5S)-6-amino-5-[({10-[(6-chloro-3,3′-dimethoxy[1,1′-biphenyl]-4-yl)carbonyl]-10,11-dihydro-5H-pyrrolo[2,1-c][1,4]benzodiazepin-3-yl}carbonyl)amino]-6-oxohexylcarbamate], the inhibition at 0.1 µM was -15%.
With `COc1ccccc1-c1ccc(C(=O)N2Cc3ccc(C(=O)N[C@@H](CCCCNC(=O)OC(C)(C)C)C(N)=O)n3Cc3ccccc32)cc1OC` [Example 303, tert-Butyl (5S)-6-amino-5-[({10-[(2,2′-dimethoxy[1,1′-biphenyl]-4-yl)carbonyl]-10,11-dihydro-5H-pyrrolo[2,1-c][1,4]benzodiazepin-3-yl}carbonyl)amino]-6-oxohexylcarbamate], the inhibition at 0.1 µM was -4%.
Regarding `COc1cc(-c2ccccc2C)c(Cl)cc1C(=O)N1Cc2ccc(C(=O)N[C@@H](CCCCNC(=O)OC(C)(C)C)C(N)=O)n2Cc2ccccc21` [Example 304, tert-Butyl (5S)-6-amino-5-[({10-[(6-chloro-3-methoxy-2′-methyl[1,1′-biphenyl]-4-yl)carbonyl]-10,11-dihydro-5H-pyrrolo[2,1-c][1,4]benzodiazepin-3-yl}carbonyl)amino]-6-oxohexylcarbamate], the inhibition at 0.1 µM was -7%.
Turning to `COc1cc(C(=O)N2Cc3ccc(C(=O)N4CCN(C)CC4)n3Cc3ccccc32)ccc1-n1c(C)ccc1C` [Example 306, {10-[4-(2,5-Dimethyl-1H-pyrrol-1-yl)-3-methoxybenzoyl]-10,11-dihydro-5H-pyrrolo[2,1-c][1,4]benzodiazepin-3-yl}(4-methyl-1-piperazinyl)methanone], the inhibition at 0.1 µM is 0%.
In the case of `COc1cc(C(=O)N2Cc3ccc(C(=O)N4CCCN(C)CC4)n3Cc3ccccc32)ccc1-n1c(C)ccc1C` [Example 307, {10-[4-(2,5-Dimethyl-1H-pyrrol-1-yl)-3-methoxybenzoyl]-10,11-dihydro-5H-pyrrolo[2,1-c][1,4]benzodiazepin-3-yl}(4-methyl-1,4-diazepan-1-yl)methanone], the inhibition at 0.1 µM is -7%.
`COc1cc(C(=O)N2Cc3ccc(C(=O)NCCCN(C)C)n3Cc3ccccc32)ccc1-n1c(C)ccc1C` [Example 308, N-[3-(Dimethylamino)propyl]-10-[4-(2,5-dimethyl-1H-pyrrol-1-yl)-3-methoxybenzoyl]-10,11-dihydro-5H-pyrrolo[2,1-c][1,4]benzodiazepine-3-carboxamide]: the inhibition at 0.1 µM was -12%.
As for `COc1cc(C(=O)N2Cc3ccc(C(=O)N(C)CCN(C)C)n3Cc3ccccc32)ccc1-n1c(C)ccc1C` [Example 309, N-[2-(Dimethylamino)ethyl]-10-[4-(2,5-dimethyl-1H-pyrrol-1-yl)-3-methoxybenzoyl]-N-methyl-10,11-dihydro-5H-pyrrolo[2,1-c][1,4]benzodiazepine-3-carboxamide], the inhibition at 0.1 µM came to 11%.
